Test results reported in PubChem BioAssay AID1259407 (Chemical Carcinogenesis Research Information System (CCRIS), 2018).
The source made the active and inactive calls. No rule for the calls is given here.

System: CCRIS mutagenicity, Ames/micronucleus/aberration tests
Assay: CCRIS mutagenicity studies
[1] = Test System: AMES SALMONELLA TYPHIMURIUM, Strain/Indicator: TA98, Metabolic Activation: NONE, Method: STANDARD PLATE
[2] = Test System: AMES SALMONELLA TYPHIMURIUM, Strain/Indicator: TA100, Metabolic Activation: NONE, Method: STANDARD PLATE
[3] = Test System: AMES SALMONELLA TYPHIMURIUM, Strain/Indicator: TA1535, Metabolic Activation: NONE, Method: STANDARD PLATE
[4] = Test System: AMES SALMONELLA TYPHIMURIUM, Strain/Indicator: TA1538, Metabolic Activation: NONE, Method: STANDARD PLATE
[5] = Test System: AMES SALMONELLA TYPHIMURIUM, Strain/Indicator: TA98, Metabolic Activation: RAT, LIVER, S-9, Method: STANDARD PLATE
[6] = Test System: AMES SALMONELLA TYPHIMURIUM, Strain/Indicator: TA100, Metabolic Activation: RAT, LIVER, S-9, Method: STANDARD PLATE

C=CC(=O)OC(C)(C)C
mutagenic call [1]: inactive; negative | mutagenic call (Test System: AMES SALMONELLA TYPHIMURIUM, Strain/Indicator: TA98, Metabolic Activation: RAT, LIVER, S-9, AROCLOR 1254, Method: STANDARD PLATE): inactive; negative | mutagenic call (Test System: AMES SALMONELLA TYPHIMURIUM, Strain/Indicator: TA98, Metabolic Activation: RAT, LIVER, S-9, SODIUM PHENOBARBITAL, Method: STANDARD PLATE): inactive; negative | mutagenic call [2]: inactive; negative | mutagenic call (Test System: AMES SALMONELLA TYPHIMURIUM, Strain/Indicator: TA100, Metabolic Activation: RAT, LIVER, S-9, AROCLOR 1254, Method: STANDARD PLATE): inactive; negative | mutagenic call (Test System: AMES SALMONELLA TYPHIMURIUM, Strain/Indicator: TA100, Metabolic Activation: RAT, LIVER, S-9, SODIUM PHENOBARBITAL, Method: STANDARD PLATE): inactive; negative | mutagenic call [3]: inactive; negative | mutagenic call (Test System: AMES SALMONELLA TYPHIMURIUM, Strain/Indicator: TA1535, Metabolic Activation: RAT, LIVER, S-9, AROCLOR 1254, Method: STANDARD PLATE): inactive; negative | mutagenic call (Test System: AMES SALMONELLA TYPHIMURIUM, Strain/Indicator: TA1535, Metabolic Activation: RAT, LIVER, S-9, SODIUM PHENOBARBITAL, Method: STANDARD PLATE): inactive; negative | mutagenic call (Test System: AMES SALMONELLA TYPHIMURIUM, Strain/Indicator: TA1537, Metabolic Activation: NONE, Method: STANDARD PLATE): inactive; negative | mutagenic call (Test System: AMES SALMONELLA TYPHIMURIUM, Strain/Indicator: TA1537, Metabolic Activation: RAT, LIVER, S-9, AROCLOR 1254, Method: STANDARD PLATE): inactive; negative | mutagenic call (Test System: AMES SALMONELLA TYPHIMURIUM, Strain/Indicator: TA1537, Metabolic Activation: RAT, LIVER, S-9, SODIUM PHENOBARBITAL, Method: STANDARD PLATE): inactive; negative | mutagenic call [4]: inactive; negative | mutagenic call (Test System: AMES SALMONELLA TYPHIMURIUM, Strain/Indicator: TA1538, Metabolic Activation: RAT, LIVER, S-9, AROCLOR 1254, Method: STANDARD PLATE): inactive; negative | mutagenic call (Test System: AMES SALMONELLA TYPHIMURIUM, Strain/Indicator: TA1538, Metabolic Activation: RAT, LIVER, S-9, SODIUM PHENOBARBITAL, Method: STANDARD PLATE): inactive; negative

COC1=CC=CC=CC1
mutagenic call (Test System: AMES SALMONELLA TYPHIMURIUM, Strain/Indicator: TA98, Metabolic Activation: NONE, Method: PREINCUBATION): inactive; negative | mutagenic call [1]: inactive; negative | mutagenic call (Test System: AMES SALMONELLA TYPHIMURIUM, Strain/Indicator: TA98, Metabolic Activation: RAT, LIVER, S-9, Method: PREINCUBATION): inactive; negative | mutagenic call [5]: inactive; negative | mutagenic call (Test System: AMES SALMONELLA TYPHIMURIUM, Strain/Indicator: TA100, Metabolic Activation: NONE, Method: PREINCUBATION): inactive; negative | mutagenic call [2]: inactive; negative | mutagenic call (Test System: AMES SALMONELLA TYPHIMURIUM, Strain/Indicator: TA100, Metabolic Activation: RAT, LIVER, S-9, Method: PREINCUBATION): inactive; negative | mutagenic call [6]: inactive; negative | mutagenic call (Test System: AMES SALMONELLA TYPHIMURIUM, Strain/Indicator: TA1535, Metabolic Activation: NONE, Method: PREINCUBATION): inactive; negative | mutagenic call [3]: inactive; negative | mutagenic call (Test System: AMES SALMONELLA TYPHIMURIUM, Strain/Indicator: TA1535, Metabolic Activation: RAT, LIVER, S-9, Method: PREINCUBATION): inactive; negative | mutagenic call (Test System: AMES SALMONELLA TYPHIMURIUM, Strain/Indicator: TA1535, Metabolic Activation: RAT, LIVER, S-9, Method: STANDARD PLATE): inactive; negative | mutagenic call (Test System: AMES SALMONELLA TYPHIMURIUM, Strain/Indicator: TA1537, Metabolic Activation: NONE, Method: PREINCUBATION): inactive; negative | mutagenic call (Test System: AMES SALMONELLA TYPHIMURIUM, Strain/Indicator: TA1537, Metabolic Activation: RAT, LIVER, S-9, Method: PREINCUBATION): inactive; negative | mutagenic call (Test System: AMES SALMONELLA TYPHIMURIUM, Strain/Indicator: TA1538, Metabolic Activation: NONE, Method: PREINCUBATION): inactive; negative | mutagenic call [4]: active; positive | mutagenic call (Test System: AMES SALMONELLA TYPHIMURIUM, Strain/Indicator: TA1538, Metabolic Activation: RAT, LIVER, S-9, Method: PREINCUBATION): inactive; negative | mutagenic call (Test System: AMES SALMONELLA TYPHIMURIUM, Strain/Indicator: TA1538, Metabolic Activation: RAT, LIVER, S-9, Method: STANDARD PLATE): active; positive | mutagenic call (Test System: CHINESE HAMSTER V-79, Strain/Indicator: V-79/8-AZAGUANINE (HGPRT), Metabolic Activation: NONE, Method: STANDARD PLATE): active; positive | mutagenic call (Test System: CHINESE HAMSTER V-79, Strain/Indicator: V-79/8-AZAGUANINE (HGPRT), Metabolic Activation: RAT, LIVER, S-9, Method: STANDARD PLATE): active; positive | mutagenic call (Test System: MOUSE LYMPHOMA, Strain/Indicator: L5178Y (TK+/TK-), Metabolic Activation: NONE): inactive; negative | mutagenic call (Test System: MOUSE LYMPHOMA, Strain/Indicator: L5178Y (TK+/TK-), Metabolic Activation: RAT, LIVER, S-9): active; positive | mutagenic call (Test System: MOUSE LYMPHOMA, Strain/Indicator: L5178Y (TK+/TK-), Metabolic Activation: RAT, LIVER, S-9, AROCLOR 1254): active; positive

CCCCOC(=O)/C=C\C(=O)OCCCC
mutagenic call (Test System: AMES SALMONELLA TYPHIMURIUM, Strain/Indicator: TA97A, Metabolic Activation: NONE): inactive; negative | mutagenic call (Test System: AMES SALMONELLA TYPHIMURIUM, Strain/Indicator: TA97A, Metabolic Activation: RAT, LIVER, S-9, AROCLOR 1254): inactive; negative | mutagenic call (Test System: AMES SALMONELLA TYPHIMURIUM, Strain/Indicator: TA98, Metabolic Activation: NONE): inactive; negative | mutagenic call (Test System: AMES SALMONELLA TYPHIMURIUM, Strain/Indicator: TA98, Metabolic Activation: RAT, LIVER, S-9, AROCLOR 1254): inactive; negative | mutagenic call (Test System: AMES SALMONELLA TYPHIMURIUM, Strain/Indicator: TA100, Metabolic Activation: NONE): inactive; negative | mutagenic call (Test System: AMES SALMONELLA TYPHIMURIUM, Strain/Indicator: TA100, Metabolic Activation: RAT, LIVER, S-9, AROCLOR 1254): inactive; negative | mutagenic call (Test System: AMES SALMONELLA TYPHIMURIUM, Strain/Indicator: TA102, Metabolic Activation: NONE): inactive; negative | mutagenic call (Test System: AMES SALMONELLA TYPHIMURIUM, Strain/Indicator: TA102, Metabolic Activation: RAT, LIVER, S-9, AROCLOR 1254): inactive; negative

CCOC(=O)C1=C(C)NC(C)=C(C(=O)OCC2COC3(CCCC3)O2)C1c1cccc(Cl)c1 (stereo not given)
mutagenic call (Test System: AMES SALMONELLA TYPHIMURIUM, Strain/Indicator: TA97, Metabolic Activation: NONE, Method: STANDARD PLATE): inactive; negative | mutagenic call (Test System: AMES SALMONELLA TYPHIMURIUM, Strain/Indicator: TA97, Metabolic Activation: RAT, LIVER, S-9, Method: STANDARD PLATE): inactive; negative | mutagenic call [1]: inactive; negative | mutagenic call [5]: inactive; negative | mutagenic call [2]: inactive; negative | mutagenic call [6]: inactive; negative | mutagenic call (Test System: AMES SALMONELLA TYPHIMURIUM, Strain/Indicator: TA102, Metabolic Activation: NONE, Method: STANDARD PLATE): inactive; negative | mutagenic call (Test System: AMES SALMONELLA TYPHIMURIUM, Strain/Indicator: TA102, Metabolic Activation: RAT, LIVER, S-9, Method: STANDARD PLATE): inactive; negative | mutagenic call (Test System: CHINESE HAMSTER V-79, Strain/Indicator: V-79 (HPRT)/6-THIOGUANINE, Metabolic Activation: NONE): inactive; negative
